14 compounds from paper PMC11156899, “High-throughput screening unveils nitazoxanide as a potent PRRSV inhibitor by targeting NMRAL1” (Nature Communications, 2024) can be followed below.

For data set [1], the system named is PRRSV (GSWW-18 strain). Description: Anti-PRRSV dose-response (EC50, IFA) in PAM cells. As to conditions: Porcine reproductive and respiratory syndrome virus. Type of data set: cell-based, Porcine Reproductive and Respiratory Syndrome Virus.
Data set [2] deals with Porcine alveolar macrophages (PAM). Description: Cytotoxicity assay (CC50) in PAM cells. As to the method:
(§1) A concentration-gradient screening strategy was employed for 141 compounds using indirect immunofluorescence assay (IFA). […] Data are mean ± SEM.
(§2) Cells were seeded in 96-well plates and grown in DMEM supplemented with 10% FBS. Upon reaching confluence, compounds were diluted to varying concentrations in 2% FBS-containing medium. Control wells contained DMEM with 0.5% DMSO. Treated cells were incubated at 37 °C in a 5% CO2 humidified environment for 48 or 72 h, followed by cytotoxicity assessment as outlined in our previous work[21]. […]

Data set [3] concerns PRRSV GSWW-18 strain in Marc-145 cells. As to conditions: reason for exclusion before third round. As to the method:
Subsequently, a second-round screening of the selected 141 compounds was conducted on Marc-145 cells using immunofluorescence assay (IFA) at four different dosage levels (Fig. 2a; Supplementary Fig. 2).
as §1
(1 picture or pasted object on this page, not shown here)

Data set [4] in a line: Cytotoxicity assay (CC50) in PAM cells. As to conditions: pig, porcine alveolar macrophages (PAM cells). The procedure: as §1, §2
Data set [5] relates to PRRSV GSWW-18 strain. Description: In vivo antiviral effect in swine infected with GSWW-18 strain. Also noted: species or system pig.
Data set [6] has as its target NMRAL1 (Chlorocebus sabaeus, UniProt A0A0D9R9W0). Description: Surface plasmon resonance, immobilized NMRAL1. In kind it is binding. As to conditions: SPR. As to the method: For SPR, the Biacore T200 system (Cytiva) was used to assess binding affinity and kinetics. The Series S Sensor Chip CM5 (BR100530, Cytiva) immobilized 13,000 resonance units (RU) of NMRAL1 (50 μg/ml, pH 4.0, 10 μl/min, 25°C). TIZ (10 to 0.3125 μM) dissolved in a 5% DMSO running buffer (1.05 × HBS-EP+, Cytiva) was applied, with a solvent correction fluid gradient of 4.5–5.8% DMSO. Contact time was set to 120 s for binding and 300 s for dissociation. Post-experiment, data were analyzed using Biacore T200 Evaluation Software 3.0 with Affinity Fit 1:1 Binding model.
(SPR reads the build-up and loss of mass on a sensor chip optically.)

Data set [7] in a line: Pharmacokinetics and tissue distribution of TIZ in swine after oral NTZ. Type of data set: in vivo, pig. The procedure: Fig. 4 NTZ inhibition of PRRSV shedding and transmission. a Viral load in blood, and shedding in oronasal and anal swabs. Viral load or shedding in blood and oronasal swabs were quantified from 2 to 4 dpi, and in anal swabs from 2 to 5 dpi. Viral copy numbers for each pig during this period are presented. b NTZ suppression of PRRSV proliferation in blood. 48 h post infection (infected with 1 × 10^5.5 TCID50 of GSWW-18 strain), pigs were orally administered NTZ at 10 mg/kg or 5 mg/kg at 0 h and 12 h, followed by blood collection via anterior vena cava or ear marginal vein. […] Parameters were calculated using a non-compartmental analysis (NCA). Eighteen pigs were evenly divided into three dosage groups (n = 6), each housed separately, fasted for 12 h before the experiment, and monitored by professional veterinarians for welfare and enclosure cleaning to prevent coprophagia. g Tissue distribution of NTZ’s main metabolite TIZ. Tissues were collected as per Method Pharmacokinetics and Tissue Distribution of NTZ, quantifying TIZ content at various times (n = 2). […] Symbols represent three or six independent biological replicates (a, b, f) Scatter plots (a, f) show mean ± SD values of samples, with P-values as indicated, calculated via two-way ANOVA with Dunnett’s multiple-comparison test (a), P-values < 0.0332 were considered significant. […]

Data set [8] relates to NSP12. Description: Surface plasmon resonance, NSP12 purified in vitro. Type of data set: binding, PRRSV GSWW-18 strain. The text has this: Supplementary Fig. 10: The Affinity of Nsp1α and Nsp12 with TIZ is Lower Than That of NMRAL1.
(a) The KD value of NMRAL1 obtained through the Affinity fit model.
(b) The KD value of Nsp1α determined using the Kinetics fit model.
(c) The KD value of Nsp1α obtained through the Affinity fit model.
'FT' is the flow-through after passing through the Ni column. 'Ni-200' and 'Ni-500' represent different purification conditions with varying concentrations. 'L2' is the total cell lysate after changing the expression conditions. 'S2' is the supernatant after cell lysis with changed expression conditions. The portions highlighted in red boxes indicate the target protein. […]
constant (KD) between Nsp1α and TIZ is lower than that of NMRAL1. We observe that […]
attempting different systems (Fig. R5 e-h). Although SPR confirms the interaction […]
possibly be attributed to the abnormal protein conformation of NSP12 purified by IBs.
The existing data also indicate that the early addition of NTZ produces a more pronounced antiviral effect (Extended Data Fig. 9), and the overexpression of NMRAL1 can almost negate the antiviral action of NTZ. This leads us to speculate that NMRAL1 may be one of the primary targets of NTZ's mechanism of action, while Nsp1α and NSP12 may serve as secondary targets.
Fig.R5 Validation of the binding between Nsp1α and Nsp12 with TIZ through SPR,

[9] abbreviates: third round of screening, PAM cells.
[10] abbreviates: PAM cells, mean ± SEM, n = 2, unit only on axis title, read-out: EC50.

Where “and” joins values, the source holds several entries; their conditions need not be identical. Equal values may be shown once. Read-outs that look alike come from different tables or passages of the source.

Chain of NMRAL1 (A0A0D9R9W0 entry or part of it): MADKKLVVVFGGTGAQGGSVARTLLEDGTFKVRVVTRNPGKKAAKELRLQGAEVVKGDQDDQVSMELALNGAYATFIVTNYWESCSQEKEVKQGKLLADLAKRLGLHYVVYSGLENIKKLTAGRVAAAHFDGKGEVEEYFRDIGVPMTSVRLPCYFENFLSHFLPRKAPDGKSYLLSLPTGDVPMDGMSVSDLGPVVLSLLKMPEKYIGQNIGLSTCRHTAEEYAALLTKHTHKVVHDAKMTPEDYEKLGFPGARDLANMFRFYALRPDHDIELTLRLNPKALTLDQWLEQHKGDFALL

One may read the EC50 as the midpoint of the concentration-response curve. Turning to `CC(=O)c1ccc2c(c1)N(CCCN1CCN(CCO)CC1)c1ccccc1S2` [Acetophenazine], the EC50 in data set [1] stood at 718 ± 224 nM. Further, the “cytotoxicity (in words)” value in data set [2] (setting [9]) is recorded as “low cytotoxicity”.

On to `CN(C)CCCOc1nn(Cc2ccccc2)c2ccccc12` [Benzydamine], for which the EC50 in data set [1] (setting [10]) amounted to 2010 ± 469 nM. In data set [2], the “cytotoxicity (in words)” value is “low cytotoxicity”.

As to `CCN(CC)CCCC(C)Nc1ccnc2cc(Cl)ccc12` (stereo not shown) [Chloroquine], the 50% effective concentration (EC50) in data set [1] (setting [10]) was 1520 ± 475 nM. Moreover, the “cytotoxicity (in words)” value in data set [2] (setting [9]) is “low cytotoxicity”.

Take `C[C@H]1O[C@@H](O[C@H]2CC[C@@]3(C)[C@H](CC[C@@H]4[C@@H]3C[C@@H](O)[C@]3(C)[C@@H](C5=CC(=O)OC5)CC[C@]43O)C2)C[C@H](O)[C@@H]1O[C@H]1C[C@H](O)[C@H](O[C@H]2C[C@H](O)[C@H](O[C@@H]3O[C@H](CO)[C@@H](O)[C@H](O)[C@H]3O)[C@@H](C)O2)[C@@H](C)O1` [Deslanoside]: the “cytotoxicity (in words)” value in data set [3] is “high cytotoxicity”.

On to `Nc1ccn([C@@H]2O[C@H](CO)[C@@H](O)C2(F)F)c(=O)n1` [Gemcitabine], for which the EC50 in data set [1] (setting [10]) came out at 109 ± 29 nM.

For the compound `CCN(CCO)CCCC(C)Nc1ccnc2cc(Cl)ccc12` (stereo not shown) [Hydroxychloroquine], the EC50 in data set [1] (setting [10]) came out at 1090 ± 187 nM. The “cytotoxicity (in words)” value in data set [2] was “low cytotoxicity”.

For orientation: CC50 means the concentration at which the toxic effect on the cells reaches its halfway point. Read a high CC50 as lower toxicity to the cells. For `CS(=O)(=O)CCNCc1ccc(-c2ccc3ncnc(Nc4ccc(OCc5cccc(F)c5)c(Cl)c4)c3c2)o1` [Lapatinib], the EC50 in data set [1] (setting [10]) turned out to be 1770 ± 535 nM. For the same compound, the CC50 in data set [4] was 9510 ± 243 nM.

On to `CN(Cc1cnc2nc(N)nc(N)c2n1)c1ccc(C(=O)N[C@@H](CCC(=O)O)C(=O)O)cc1` [Methotrexate], for which the EC50 in data set [1] (setting [10]) is 307 ± 316 nM. The same compound returned a CC50 in data set [4] of 6830 ± 2250 nM.

`COc1c(C)c2c(c(O)c1C/C=C(\C)CCC(=O)O)C(=O)OC2` [Mycophenolic acid]: in data set [1] (setting [10]), the EC50 was 305 ± 67 nM.

For `CN1CCC(=C2c3ccccc3CCc3sccc32)CC1` [Pizotifen], in data set [1] (setting [10]), the 50% effective concentration (EC50) came to 541 ± 140 nM. Besides, the “cytotoxicity (in words)” value in data set [2] was “low cytotoxicity”.

In the case of `NC(=O)c1ncn([C@@H]2O[C@H](CO)[C@@H](O)[C@H]2O)n1` [RBV, Ribavirin], in data set [5] (blood, oronasal and anal swabs), the “viral load and shedding, setting of efficacy” value was “effective only in the prophylactic setting”. Moreover, the “efficacy against PRRSV in swine” value in data set [5] (positive control group) is reported as “appeared to lack efficacy”.

With `CCC(CC)COC(=O)[C@H](C)N[P@](=O)(OC[C@H]1O[C@@](C#N)(c2ccc3c(N)ncnn23)[C@H](O)[C@@H]1O)Oc1ccccc1` [Remdesivir], the EC50 in data set [1] (setting [10]) amounted to 4990 ± 2370 nM. In addition, in data set [2], the “cytotoxicity (in words)” value is listed as “low cytotoxicity”.

Broadly, the Kd is the equilibrium constant for the complex coming apart. For orientation: Tmax means the time at which the peak concentration occurs. For `O=C(Nc1ncc([N+](=O)[O-])s1)c1ccccc1O` [TIZ, Tizoxanide], in data set [6] (NMRAL1 vs NSP1α and NSP12), the “affinity compared between proteins” value was “higher than that of NSP1α and NSP12”. The dissociation constant (Kd) in data set [6] (legend of Fig. 6o, Supplementary Fig. 10a (Affinity fit model)) is 4500 nM; in data set [6] (value printed in Fig. 6o with ka and kd) it was ~2870 nM and 2870 nM. Moreover, the kon in data set [6] (read-out: ka) was found to be 2380 M⁻¹ s⁻¹. Further, the koff in data set [6] (read-out: kd) came out at 0.00683 s⁻¹. In addition, the tissue distribution result in data set [7] (pig tissues after oral NTZ, n = 2) is “primarily distributed in small and large intestines, MesLNs, ILNs, but not in high concentrations in lungs”. The Tmax in data set [7] (pig, in vivo, po, 25 mg/kg) came out at 2.167 h. Also, in data set [8], the “interaction with NSP12 (SPR)” value is given as “weak interaction”.

Take `CN(C/C=C/C#CC(C)(C)C)Cc1cccc2ccccc12` [Terbinafine]: the EC50 in data set [1] (setting [10]) was found to be 1220 ± 328 nM. Moreover, the “cytotoxicity (in words)” value in data set [2] was “low cytotoxicity”.
